Experimental data: patent US20100166851A1, “Composition having lipolytic activity, production method thereof and use of the composition” (NUTRACEUTIC ET BUSINESS CONSULTING, priority 2007, published 2010)

Test system: human adipocytes
Assay: release of Not Esterified Fatty Acids (NEFA) by human adipocytes in suspension (ex-vivo lipolysis)
Assay type: cell-based
Conditions: for NEFA: human adipocytes, 2 hours at 37° C., n=3; for % of the control: NEFA released, 2 hours
Procedure: This experiment has been conducted on human adipocytes isolated from an abdominal plasty of a donor. […] To 540 uL of a suspension of adipocytes in a test medium milieu have been added 60 μL of compound to be tested, and the mixtures have been incubated at 37° C., under stirring, for 2 hours. A final concentration of theophylline in the tested mixture of 1 mM was maintained, starting from a stock solution of 10^−2 M in test medium. Likewise, a final concentration of isoproterenol in the tested mixture of 1 μM was maintained, starting from a stock solution of […] in test medium. A final concentration of caffeine in the tested mixture of 0.5 mM was also maintained, starting from a stock solution of 5 mM in test medium. […] Since the composition according to the invention is a powder, it was diluted in DMSO, on the one hand, and in test medium, on the other hand. The stock solution prepared with DMSO was prepared at 10 mg/mL, i.e. 1% (w/v), for a final concentration of the composition according to the invention in solution in DMSO in the tested mixture of 0.01%. […] A control comprising only the adipocytes in test medium was also prepared. A total of 10 doses were prepared from 10 different fractions with the compound added or not. […] The dose was prepared conventionally by means of a NEFA-C measuring kit. The measured data were processed statistically. Intergroup comparisons were carried out through variance analysis (ANOVA) by means of the Dunnet multiple comparison test.

Q: With `CC(C)NCC(O)c1ccc(O)c(O)c1` (stereo not drawn) [Isoproterenol, isoproterenol] as the compound, how does the NEFA (1.0 μM) read?
A: 377 µM

Q: And the “lipolysis stimulation, factor with respect to the control” value (1 μM, p<0.01)?
A: 10

Q: And the “% of the control” value (1.0 μM)?
A: 1048%

Q: With `Cn1c(=O)c2[nH]cnc2n(C)c1=O` [Theophylline, theophylline] as the compound, how does the NEFA (1.0 mM) read?
A: 381 µM

Q: What about the “lipolysis stimulation, factor with respect to the control” value (1 mM, p<0.01) of the same compound?
A: 10

Q: What about the “% of the control” value (1.0 mM) of the same compound?
A: 1057%

Q: What does the source list for `Cn1c(=O)c2c(ncn2C)n(C)c1=O` [Caffeine, caffeine]?
A: NEFA (0.5 mM): 339 µM; release of NEFA, factor with respect to the control (0.5 mM, p<0.01): about 9.5; % of the control (0.5 mM): 941%
